Data published in US5238953A, “N-imidazolyl derivatives of substituted tetrahydrocarbazole and cyclohept (B) indole” (Farmitalia Carlo Erba S.R.L., priority 1991, dated 1993).
Where two headings read alike, the source gives them in different places.

Legend:
[1] = system: TxB2 synthesis; experiment: TxB2 synthesis inhibition in vitro in whole blood of normal rats; type: cell-based, normal Sprague Dawley rats; conditions: Rattus norvegicus, read-out: In vitro effect on TxB2 synthesis in normal rats, IC50 (whole blood)
Procedure: (§1) The effects of a representative group of compounds of the invention were evaluated, in comparison with known compounds, on TxB2 synthesis inhibition in vitro in whole blood of normal rats, and on TxA2 antagonism in a binding assay in washed human platelets.
TxB2 Synthesis Inhibition
Blood was withdrawn from the abdominal aorta of normal Sprague Dawley rats (Charles River Italy) under light ether anaesthesia. The blood was immediately divided in portions of 0.5 ml and distributed in glass tubes each containing a concentration of the test compound, or of the reference compounds.
Samples were then allowed to clot for 1 hour at 37° C., centrifuged at 3000 rpm for 10 min, and serum collected and stored at -20° C. until assayed.

[2] = target: T1, TXA2 receptor (Homo sapiens, UniProt P21731); experiment: Displacement of [^3 H]-SQ 29.548 binding to washed human platelets (TxA2 antagonism); conditions: for affinity for the receptor: in words, compared with BM 13505 and BM 13177, binding test (washed human platelets); for IC50: washed human platelets, [^3 H]-SQ 29,548 5 nM, 30 min at 25° C., read-out: ^3 H SQ 29548 binding displacement (washed human platelet) IC50
T1 construct: endogenous in cells; host or cells: washed human platelets from blood of healthy volunteers
T1 sequence (P21731 1-343): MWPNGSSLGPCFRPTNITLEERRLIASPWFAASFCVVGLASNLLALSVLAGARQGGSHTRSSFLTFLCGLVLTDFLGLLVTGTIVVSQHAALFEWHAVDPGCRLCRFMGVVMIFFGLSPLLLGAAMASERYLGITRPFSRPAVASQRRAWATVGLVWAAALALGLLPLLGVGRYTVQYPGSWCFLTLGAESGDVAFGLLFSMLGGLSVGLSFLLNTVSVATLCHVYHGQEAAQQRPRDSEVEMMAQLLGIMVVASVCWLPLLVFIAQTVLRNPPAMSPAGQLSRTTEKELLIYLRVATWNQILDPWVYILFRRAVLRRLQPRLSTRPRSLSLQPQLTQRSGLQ
Procedure: as §1
Displacement of [^3 H]-SQ 29.548 binding to washed human platelets
Blood from healthy volunteers of both sexes who had not taken any medication for at least 10 days was collected into one-tenth volume of acid citrate dextrose containing indomethacin (28 μM). Platelet rich plasma (PRP), obtained by centrifugation of the blood at 200×g for 20 min, was washed twice (1000×g for 10 min). The platelets are then resuspended in Tyrode-Hepes buffer (pH 7.4) to a final concentration of […] and incubated for 0-60 min at 25° with [^3 H]-SQ 29,548 (5 nM). For displacement experiments various concentrations (10^-9 -10^-4 M) of competing ligands were added and incubated for 30 min at 25° C. […] After the incubation, 4 ml of ice-cold TRIS-HCl buffer (10 mM, pH 7.4) was added to each tube and the reaction mixture was immediately filtered by suction through a Whatman GF/C glass filter disc which was washed 2 times with ice-cold TRIS-HCl (4 ml) and counted for radioactivity by a Packard β-counter.
The binding data were analysed by computerized non-linear curve fitting using the Ligand program and expressed as IC50.

[3] = whole blood of normal rats, clotted 1 hour at 37° C.

O=C(O)CC1CCCc2c(n(Cc3ccc(-n4ccnc4)cc3)c3ccc(F)cc23)C1 (stereo not shown) [FCE 27041, 2-Fluoro-5-[[4-(1H-imidazol-1-yl)phenyl]methyl]-5,6,7,8,9,10-hexahydrocyclohept[b]indole-7-acetic acid]
IC50 [1, 3]: 198 nM
affinity for the receptor [2]: affinity for the receptor greater than those of compounds BM 13505 and BM 13177
IC50 [2]: 6 nM

O=C(O)c1ccc(OCCn2ccnc2)cc1 [Dazoxiben]
IC50 [1, 3]: 1200 nM

O=C(O)CC1CCCc2c1n(Cc1ccc(-n3ccnc3)cc1)c1ccc(F)cc21 (stereo not shown) [FCE 26643, 6-Fluoro-9-[[4-(1H-imidazol-1-yl)phenyl]methyl]-1,2,3,4-tetrahydrocarbazol-1-yl-acetic acid]
affinity for the receptor [2]: affinity for the receptor greater than those of compounds BM 13505 and BM 13177
IC50 [2]: 6.6 nM

CC(=O)Oc1ccccc1C(=O)O [ASA, acetylsalicilic acid]
IC50 ([1]; 1 h): 31000 nM
